PubChem BioAssay AID1918934 (Molecular Pharmacology Branch, DTP, NCI, 2023)

Tested on: 292921-168-R-J2-PDC complex spheroid viability
Assay: Anticancer human tumor 292921-168-R-J2-PDC patient-derived pancreatic carcinoma cell line growth inhibition
Conditions: for IC50: curve of first compound; for viability, T/C: stronger effect = lower value
How it was run: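 Multicellular complex spheroids of tumor cells with human endothelial cells (HUVEC) and mesenchymal stem cells; the LSD1 inhibitor iadademstat was combined with standard-of-care or investigational agents. Top concentration at or near clinical Cmax, half-log dilutions; final DMSO ≤0.25%.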

[1] = second compound 0.1 µM, first compound 0.000316 µM
[2] = second compound 0.1 µM, first compound 0.001 µM
[3] = second compound 0.1 µM, first compound 0.00316 µM
[4] = second compound 0.1 µM, first compound 0.01 µM
[5] = second compound 0.1 µM, first compound 0.0316 µM
[6] = second compound 0.1 µM, first compound 0.1 µM
[7] = second compound 0.316 µM, first compound 0.000316 µM
[8] = second compound 0.316 µM, first compound 0.001 µM
[9] = second compound 0.316 µM, first compound 0.00316 µM
[10] = second compound 0.316 µM, first compound 0.01 µM
[11] = second compound 0.316 µM, first compound 0.0316 µM
[12] = second compound 0.316 µM, first compound 0.1 µM
[13] = second compound 1 µM, first compound 0.000316 µM
[14] = second compound 1 µM, first compound 0.001 µM
[15] = second compound 1 µM, first compound 0.00316 µM
[16] = second compound 1 µM, first compound 0.01 µM
[17] = second compound 1 µM, first compound 0.0316 µM
[18] = second compound 1 µM, first compound 0.1 µM
[19] = second compound 3.16 µM, first compound 0.000316 µM
[20] = second compound 3.16 µM, first compound 0.001 µM
[21] = second compound 3.16 µM, first compound 0.00316 µM
[22] = second compound 3.16 µM, first compound 0.01 µM
[23] = second compound 3.16 µM, first compound 0.0316 µM
[24] = second compound 3.16 µM, first compound 0.1 µM
[25] = second compound 10 µM, first compound 0.000316 µM
[26] = second compound 10 µM, first compound 0.001 µM
[27] = second compound 10 µM, first compound 0.00316 µM
[28] = second compound 10 µM, first compound 0.01 µM
[29] = second compound 10 µM, first compound 0.0316 µM
[30] = second compound 10 µM, first compound 0.1 µM
[31] = second compound 0.1 µM, first compound 0.00949 µM
[32] = second compound 0.1 µM, first compound 0.03 µM
[33] = second compound 0.1 µM, first compound 0.0949 µM
[34] = second compound 0.1 µM, first compound 0.3 µM
[35] = second compound 0.1 µM, first compound 0.949 µM
[36] = second compound 0.1 µM, first compound 3 µM
[37] = second compound 0.316 µM, first compound 0.00949 µM
[38] = second compound 0.316 µM, first compound 0.03 µM
[39] = second compound 0.316 µM, first compound 0.0949 µM
[40] = second compound 0.316 µM, first compound 0.3 µM
[41] = second compound 0.316 µM, first compound 0.949 µM
[42] = second compound 0.316 µM, first compound 3 µM
[43] = second compound 1 µM, first compound 0.00949 µM
[44] = second compound 1 µM, first compound 0.03 µM
[45] = second compound 1 µM, first compound 0.0949 µM
[46] = second compound 1 µM, first compound 0.3 µM
[47] = second compound 1 µM, first compound 0.949 µM
[48] = second compound 1 µM, first compound 3 µM
[49] = second compound 3.16 µM, first compound 0.00949 µM
[50] = second compound 3.16 µM, first compound 0.03 µM
[51] = second compound 3.16 µM, first compound 0.0949 µM
[52] = second compound 3.16 µM, first compound 0.3 µM
[53] = second compound 3.16 µM, first compound 0.949 µM
[54] = second compound 3.16 µM, first compound 3 µM
[55] = second compound 10 µM, first compound 0.00949 µM
[56] = second compound 10 µM, first compound 0.03 µM
[57] = second compound 10 µM, first compound 0.0949 µM
[58] = second compound 10 µM, first compound 0.3 µM
[59] = second compound 10 µM, first compound 0.949 µM
[60] = second compound 10 µM, first compound 3 µM
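Note: seven day compound exposure before luminescent viability read.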
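Throughout, for viability, T/C: 100% = DMSO vehicle control wells.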

## CC(C)CC(NC(=O)CNC(=O)c1cc(Cl)ccc1Cl)B1OC(=O)CC(CC(=O)O)(C(=O)O)O1 (stereo not given) + NC1CCC(NC2CC2c2ccccc2)CC1
Second compound 0.1 µM
  IC50: 4.8 nM
Second compound 0.316 µM
  IC50: 4.28 nM
Second compound 1 µM
  IC50: 4.66 nM
Second compound 3.16 µM
  IC50: 4.25 nM
Second compound 10 µM
  IC50: 4.24 nM
[1]
  viability, T/C: 75.8%
[2]
  viability, T/C: 69.4%
[3]
  viability, T/C: 70.9%
[4]
  viability, T/C: 13.4%
[5]
  viability, T/C: 2.33%
[6]
  viability, T/C: 0.79%
[7]
  viability, T/C: 60.9%
[8]
  viability, T/C: 70.9%
[9]
  viability, T/C: 61.9%
[10]
  viability, T/C: 16.1%
[11]
  viability, T/C: 2.1%
[12]
  viability, T/C: 0.69%
[13]
  viability, T/C: 63.8%
[14]
  viability, T/C: 73%
[15]
  viability, T/C: 66.7%
[16]
  viability, T/C: 17.2%
[17]
  viability, T/C: 2.39%
[18]
  viability, T/C: 0.76%
[19]
  viability, T/C: 54.9%
[20]
  viability, T/C: 67%
[21]
  viability, T/C: 63.5%
[22]
  viability, T/C: 15.9%
[23]
  viability, T/C: 1.7%
[24]
  viability, T/C: 0.63%
[25]
  viability, T/C: 58.6%
[26]
  viability, T/C: 69%
[27]
  viability, T/C: 63.1%
[28]
  viability, T/C: 11.7%
[29]
  viability, T/C: 1.43%
[30]
  viability, T/C: 0.5%

## COc1cc(Nc2ncc3c(n2)-c2ccc(Cl)cc2C(c2c(F)cccc2OC)=NC3)ccc1C(=O)O + NC1CCC(NC2CC2c2ccccc2)CC1
Second compound 0.1 µM
  IC50: < 3.16 nM
Second compound 0.316 µM
  IC50: < 3.16 nM
Second compound 1 µM
  IC50: < 3.16 nM
Second compound 3.16 µM
  IC50: < 3.16 nM
Second compound 10 µM
  IC50: < 3.16 nM
[3]
  viability, T/C: 32.5%
[4]
  viability, T/C: 37.7%
[5]
  viability, T/C: 33.5%
[6]
  viability, T/C: 28.6%
Second compound 0.1 µM, first compound 0.316 µM
  viability, T/C: 22.4%
Second compound 0.1 µM, first compound 1 µM
  viability, T/C: 16.5%
[9]
  viability, T/C: 31.7%
[10]
  viability, T/C: 39.2%
[11]
  viability, T/C: 32.5%
[12]
  viability, T/C: 24.6%
Second compound 0.316 µM, first compound 0.316 µM
  viability, T/C: 22.5%
Second compound 0.316 µM, first compound 1 µM
  viability, T/C: 14.3%
[15]
  viability, T/C: 35.6%
[16]
  viability, T/C: 34.7%
[17]
  viability, T/C: 34.8%
[18]
  viability, T/C: 29.3%
Second compound 1 µM, first compound 0.316 µM
  viability, T/C: 18.3%
Second compound 1 µM, first compound 1 µM
  viability, T/C: 14.3%
[21]
  viability, T/C: 30.2%
[22]
  viability, T/C: 32.6%
[23]
  viability, T/C: 29.4%
[24]
  viability, T/C: 25.9%
Second compound 3.16 µM, first compound 0.316 µM
  viability, T/C: 21.5%
Second compound 3.16 µM, first compound 1 µM
  viability, T/C: 14.9%
[27]
  viability, T/C: 28.3%
[28]
  viability, T/C: 36.8%
[29]
  viability, T/C: 30.9%
[30]
  viability, T/C: 25.2%
Second compound 10 µM, first compound 0.316 µM
  viability, T/C: 19.9%
Second compound 10 µM, first compound 1 µM
  viability, T/C: 15.3%

## Cn1ncnc1C1c2n[nH]c(=O)c3cc(F)cc(c23)NC1c1ccc(F)cc1 (stereo not given) + NC1CCC(NC2CC2c2ccccc2)CC1
Second compound 0.1 µM
  IC50: > 100 nM
Second compound 0.316 µM
  IC50: 81.4 nM
Second compound 1 µM
  IC50: > 100 nM
Second compound 3.16 µM
  IC50: 28.4 nM
Second compound 10 µM
  IC50: > 100 nM
[1]
  viability, T/C: 68.7%
[2]
  viability, T/C: 69%
[3]
  viability, T/C: 64.6%
[4]
  viability, T/C: 66.7%
[5]
  viability, T/C: 66.6%
[6]
  viability, T/C: 53.4%
[7]
  viability, T/C: 66.6%
[8]
  viability, T/C: 60.4%
[9]
  viability, T/C: 62.1%
[10]
  viability, T/C: 52.8%
[11]
  viability, T/C: 54.2%
[12]
  viability, T/C: 49.1%
[13]
  viability, T/C: 67.6%
[14]
  viability, T/C: 60.3%
[15]
  viability, T/C: 54.9%
[16]
  viability, T/C: 52.9%
[17]
  viability, T/C: 47.1%
[18]
  viability, T/C: 55.7%
[19]
  viability, T/C: 57.7%
[20]
  viability, T/C: 57.1%
[21]
  viability, T/C: 58.6%
[22]
  viability, T/C: 53%
[23]
  viability, T/C: 46.8%
[24]
  viability, T/C: 46.6%
[25]
  viability, T/C: 59%
[26]
  viability, T/C: 60.4%
[27]
  viability, T/C: 60.8%
[28]
  viability, T/C: 57%
[29]
  viability, T/C: 50.4%
[30]
  viability, T/C: 54.3%

## NS(=O)(=O)OCC1CC(n2ccc3c(NC4CCc5ccccc54)ncnc32)CC1O (stereo not given) + NC1CCC(NC2CC2c2ccccc2)CC1
Second compound 0.1 µM
  IC50: 16.8 nM
Second compound 0.316 µM
  IC50: 16.7 nM
Second compound 1 µM
  IC50: 16.1 nM
Second compound 3.16 µM
  IC50: 15.3 nM
Second compound 10 µM
  IC50: 12.8 nM
[31]
  viability, T/C: 83.8%
[32]
  viability, T/C: 15.6%
[33]
  viability, T/C: 3.97%
[34]
  viability, T/C: 1.88%
[35]
  viability, T/C: 1.9%
[36]
  viability, T/C: 2.04%
[37]
  viability, T/C: 83.4%
[38]
  viability, T/C: 15.3%
[39]
  viability, T/C: 4.75%
[40]
  viability, T/C: 3.14%
[41]
  viability, T/C: 2.25%
[42]
  viability, T/C: 1.88%
[43]
  viability, T/C: 77.6%
[44]
  viability, T/C: 17.4%
[45]
  viability, T/C: 4.76%
[46]
  viability, T/C: 2.36%
[47]
  viability, T/C: 2.12%
[48]
  viability, T/C: 1.71%
[49]
  viability, T/C: 72.7%
[50]
  viability, T/C: 18.4%
[51]
  viability, T/C: 4.6%
[52]
  viability, T/C: 2.14%
[53]
  viability, T/C: 1.54%
[54]
  viability, T/C: 1.63%
[55]
  viability, T/C: 62.3%
[56]
  viability, T/C: 15.6%
[57]
  viability, T/C: 4.83%
[58]
  viability, T/C: 2.29%
[59]
  viability, T/C: 1.42%
[60]
  viability, T/C: 0.82%

## O=C(C=Cc1cccc(S(=O)(=O)Nc2ccccc2)c1)NO + NC1CCC(NC2CC2c2ccccc2)CC1
Second compound 0.1 µM
  IC50: < 9.49 nM
Second compound 0.316 µM
  IC50: < 9.49 nM
Second compound 1 µM
  IC50: < 9.49 nM
Second compound 3.16 µM
  IC50: < 9.49 nM
Second compound 10 µM
  IC50: < 9.49 nM
[31]
  viability, T/C: 44%
[32]
  viability, T/C: 36.2%
[33]
  viability, T/C: 28.6%
[34]
  viability, T/C: 17.3%
[35]
  viability, T/C: 0.45%
[36]
  viability, T/C: 0.08%
[37]
  viability, T/C: 48.7%
[38]
  viability, T/C: 34.8%
[39]
  viability, T/C: 31.6%
[40]
  viability, T/C: 19.1%
[41]
  viability, T/C: 0.37%
[42]
  viability, T/C: 0.38%
[43]
  viability, T/C: 43.8%
[44]
  viability, T/C: 35.6%
[45]
  viability, T/C: 30.9%
[46]
  viability, T/C: 15.2%
[47]
  viability, T/C: 0.34%
[48]
  viability, T/C: 0.09%
[49]
  viability, T/C: 40%
[50]
  viability, T/C: 33.4%
[51]
  viability, T/C: 24.4%
[52]
  viability, T/C: 12.4%
[53]
  viability, T/C: 0.19%
[54]
  viability, T/C: 0.08%
[55]
  viability, T/C: 42.2%
[56]
  viability, T/C: 32.4%
[57]
  viability, T/C: 22.9%
[58]
  viability, T/C: 7.61%
[59]
  viability, T/C: 0.12%
[60]
  viability, T/C: 0.13%
